Like-named read-outs stand apart in the source and are kept apart here.
Key:
RIPK1 = RIPK1 (Homo sapiens (Human), UniProt Q13546); assay: biochemical; type: biochemical
Description: In this example, compounds of the disclosure were evaluated using a biochemical assay using the ADP-Glo™ technology.
ADP-Glo™ (Promega, Madison, Wis., USA) reagents were thawed at ambient temperature. Kinase Detection Reagent was prepared by mixing kinase detection buffer with the lyophilized kinase detection substrate.
A […] stock volume of 5× Reaction Kinase Buffer was made by mixing 1000 μl of 1M MgCl2, 500 μl of 1M Tris-HCL pH7.4, 0.5 mg/ml (25 mg) of BSA, and 3475 μl of distilled H2O. A 3 ml 2× working stock volume of Reaction Kinase Buffer was made containing a final concentration of 100 μM DTT and 4 mM MnCl2.
Components of RIPK1 enzyme (Rigel Pharmaceuticals, South San Francisco, Calif., USA) were thawed on ice. Diluted RIPK1 was prepared in 1× Kinase Reaction Buffer (diluted from 2× buffer) to 31 ng/well.
1.0 ul of diluted compound was added to a 384 well plate in duplicate. […] The final reaction volume was 5.0 μl. The plate was quickly centrifuged and the reaction was incubated at 30° C. for 30 minutes. Adding 5 μl of ADP-Glo™ terminated the reaction. The plate was quickly centrifuged and the reaction was incubated at room temperature for 40 minutes. Kinase Detection Reagent was then added and incubated at room temperature for 30 minutes. The relative light unit (RLU) of kinase reaction was determined by luminescent (Luminescence 0.1 s) using a Wallac Victor2 Luminometer (PerkinElmer, Waltham, Mass., USA).

L929 cells = assay: L929 cell necroptosis assay (TNFa + zVAD, CellTiter-Glo recovery), functional murine RIP1 assay; type: cell-based; conditions: Mus musculus, L929, 18 h, read-out: L929-CTG-recovery, L929, TNFa + zVAD (IC50), L929 cells, zVAD-fmk, TNFa 2 ng/mL, 18 hours, CellTiter-Glo
Method in brief: (§1)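 Human U937 cells (50K/well, 60 uM zVAD-fmk in plating medium) and murine L929 cells (10K/well, medium replaced with 40 uM zVAD-fmk) were pre-incubated with compound 1 h at 37 °C. TNFa was then added at a final 2 ng/mL. Viability by CellTiter-Glo luminescence after 18 h.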

U937 cells = assay: U937 cell necroptosis assay (TNFa + zVAD, CellTiter-Glo recovery), functional human RIP1 assay; type: cell-based; conditions: Homo sapiens, U-937, 18 h, read-out: U937 Zvad TNF CTG Recovery, U937, TNFa + zVAD (IC50), U937 cells, zVAD-fmk, TNFa 2 ng/mL, 18 hours, CellTiter-Glo
Method in brief: as §1

[1] = RIPK1 enzyme 31 ng/well, 30° C. for 30 minutes, luminescence, read-out: RIPK1 ADP-Glo Kinase (IC50)

Sequence of RIPK1 (Q13546 whole entry, species assumed): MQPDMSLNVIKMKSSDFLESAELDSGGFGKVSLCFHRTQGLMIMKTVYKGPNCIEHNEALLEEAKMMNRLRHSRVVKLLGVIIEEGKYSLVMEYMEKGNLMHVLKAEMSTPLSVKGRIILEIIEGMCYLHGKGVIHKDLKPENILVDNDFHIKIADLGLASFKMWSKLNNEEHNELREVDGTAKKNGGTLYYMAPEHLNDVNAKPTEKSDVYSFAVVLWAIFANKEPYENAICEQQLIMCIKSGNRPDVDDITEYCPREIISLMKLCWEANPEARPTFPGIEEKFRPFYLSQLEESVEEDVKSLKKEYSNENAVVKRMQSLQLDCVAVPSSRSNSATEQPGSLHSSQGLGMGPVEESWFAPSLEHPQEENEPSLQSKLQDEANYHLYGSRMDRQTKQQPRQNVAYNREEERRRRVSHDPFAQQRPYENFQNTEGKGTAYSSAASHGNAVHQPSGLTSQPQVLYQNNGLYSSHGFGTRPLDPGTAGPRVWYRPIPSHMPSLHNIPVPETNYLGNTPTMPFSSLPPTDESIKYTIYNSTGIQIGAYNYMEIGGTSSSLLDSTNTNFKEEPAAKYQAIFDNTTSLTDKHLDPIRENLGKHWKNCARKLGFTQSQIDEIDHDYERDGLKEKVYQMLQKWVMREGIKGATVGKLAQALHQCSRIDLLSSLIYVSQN

Compound: O=C(NC1CSc2cccn2-n2ccnc21)c1ncn(Cc2c(Cl)cccc2Cl)n1 (racemic) [Compound I-29, (±)-1-(2,6-Dichlorobenzyl)-N-(4,5-dihydroimidazo[1,2-d]pyrrolo[2,1-b][1,3,4]thiadiazepin-4-yl)-1H-1,2,4-triazole-3-carboxamide]
- IC50 (RIPK1): 0.0098 µM
- IC50 (L929 cells): 0.195 µM
- IC50 (U937 cells): 0.0011 µM

Compound: O=C(NC1CCc2ccccc2-n2cnnc21)c1n[nH]c(Cc2ccccc2)n1 (racemic) [Compound I-57, (±)-5-Benzyl-N-(5,6-dihydro-4H-benzo[f][1,2,4]triazolo[4,3-a]azepin-4-yl)-1H-1,2,4-triazole-3-carboxamide]
- IC50 (RIPK1; [1]): 0.663 µM
- IC50 (L929 cells): 10000 µM
- IC50 (U937 cells): 3.65 µM

Compound: O=C(NC1CCc2ccccc2-n2c1noc2=O)c1n[nH]c(Cc2ccccc2)n1 (racemic) [Compound I-48, (±)-5-Benzyl-N-(1-oxo-5,6-dihydro-1H,4H-benzo[f][1,2,4]oxadiazolo[4,3-a]azepin-4-yl)-1H-1,2,4-triazole-3-carboxamide]
- IC50 (RIPK1; [1]): 0.0534 µM
- IC50 (L929 cells): 10000 µM
- IC50 (U937 cells): 0.0408 µM

Compound: O=C(NC1COc2ccccc2-n2cccc21)c1n[nH]c(Cc2ccccc2)n1 (racemic) [Compound I-34, (±)-5-Benzyl-N-(6,7-dihydrobenzo[b]pyrrolo[1,2-d][1,4]oxazepin-7-yl)-1H-1,2,4-triazole-3-carboxamide]
- IC50 (RIPK1; [1]): 0.139 µM
- IC50 (L929 cells): 10000 µM
- IC50 (U937 cells): 1.54 µM

Compound: O=C(NC1Cc2ccccc2-n2ccnc21)c1n[nH]c(Cc2ccccc2)n1 (racemic) [Compound I-66, (±)-5-Benzyl-N-(4,5-dihydroimidazo[1,2-a]quinolin-4-yl)-1H-1,2,4-triazole-3-carboxamide]
- IC50 (RIPK1; [1]): 13.5 µM
- IC50 (L929 cells): 10000 µM
- IC50 (U937 cells): 10000 µM

Compound: CC(C)(O)C#Cc1ccc2c(c1)-n1ccnc1C(NC(=O)c1cc(Oc3ccccc3)ccn1)CC2 (racemic) [Compound I-56, (±)-N-(9-(3-Hydroxy-3-methylbut-1-yn-1-yl)-5,6-dihydro-477-benzo[f]imidazo[1,2-a]azepin-4-yl)-4-phenoxypicolinamide]
- IC50 (RIPK1; [1]): 0.0561 µM
- IC50 (L929 cells): 5.09 µM
- IC50 (U937 cells): 0.0345 µM

Compound: O=C(NC1Cc2ccccc2-n2ccnc21)c1cc(Oc2ccccc2)ccn1 (racemic) [Compound I-67, (±)-N-(4,5-Dihydroimidazo[1,2-a]quinolin-4-yl)-4-phenoxypicolinamide]
- IC50 (RIPK1; [1]): 11.4 µM
- IC50 (L929 cells): 10000 µM
- IC50 (U937 cells): 10000 µM

Compound: O=C(N[C@H]1CSc2ccccc2-n2nnnc21)c1n[nH]c(Cc2ccc(F)cc2)n1 [Compound I-30, (R)—N-(4,5-Dihydrobenzo[&]tetrazolo[1,5-d][1,4]thiazepin-4-yl)-5-(4-fluorobenzyl)-1H-1,2,4-triazole-3-carboxamide]
- IC50 (RIPK1; [1]): 0.0186 µM
- IC50 (L929 cells): 10000 µM
- IC50 (U937 cells): 0.0679 µM

Compound: O=C(NC1CCc2ccccc2-n2c1noc2=O)c1cc(Oc2ccccc2)ccn1 (racemic) [Compound I-52, (±)-N-(1-Oxo-5,6-dihydro-1H,4H-benzo[f][1,2,4]oxadiazolo[4,3-a]azepin-4-yl)-4-phenoxypicolinamide]
- IC50 (RIPK1; [1]): 0.0325 µM
- IC50 (L929 cells): 20.8 µM
- IC50 (U937 cells): 0.0647 µM

Compound: O=C(N[C@H]1COc2ccccc2-n2nnnc21)c1cc(Cc2ccccc2)on1 [Compound I-8, (R)-5-Benzyl-N-(4,5-dihydrobenzo[6]tetrazolo[1,5-d][1,4]oxazepin-4-yl)isoxazole-3-carboxamide]
- IC50 (RIPK1; [1]): 0.521 µM
- IC50 (L929 cells): 10000 µM
- IC50 (U937 cells): 4.45 µM

Compound: O=C(NC1CCc2ccccc2-n2ccnc21)c1n[nH]c(Cc2c(Cl)cccc2Cl)n1 (racemic) [Compound I-19, (±)-5-(2,6-Dichlorobenzyl)-N-(5,6-dihydro-4H-benzo[f]imidazo[1,2-a]azepin-4-yl)-1H-1,2,4-triazole-3-carboxamide]
- IC50 (RIPK1; [1]): 0.393 µM
- IC50 (L929 cells): 10000 µM
- IC50 (U937 cells): 0.96 µM

Compound: O=C(N[C@H]1COc2ccccc2-n2c1noc2=O)c1cc(Cc2ccccc2)on1 [Compound I-43, 5-benzyl-N-((4R)-1-oxo-4,5-dihydro-1H-benzo[b][1,2,4]oxadiazolo[4,3-d][1,4]oxazepin-4-yl)isoxazole-3-carboxamide]
- IC50 (RIPK1; [1]): 0.11 µM
- IC50 (L929 cells): 10000 µM
- IC50 (U937 cells): 0.205 µM

Compound: O=C(N[C@H]1COc2ccccc2-n2nnnc21)c1n[nH]c(Cc2ccccc2)n1 [Compound I-3, (R)-5-Benzyl-N-(4,5-dihydrobenzo[b]tetrazolo[1,5-d][1,4]oxazepin-4-yl)-1H-1,2,4-triazole-3-carboxamide]
- IC50 (RIPK1; [1]): 0.0582 µM
- IC50 (L929 cells): 10000 µM
- IC50 (U937 cells): 4.08 µM

Compound: CC(C)(O)CCc1ccc2c(c1)-n1ccnc1C(NC(=O)c1n[nH]c(Cc3ccccc3)n1)CC2 (racemic) [Compound I-68, (±)-5-Benzyl-N-(9-(3-hydroxy-3-methylbutyl)-5,6-dihydro-4H-benzo[f]imidazo[1,2-a]azepin-4-yl)-1H-1,2,4-triazole-3-carboxamide]
- IC50 (RIPK1; [1]): 0.118 µM
- IC50 (L929 cells): 8.67 µM
- IC50 (U937 cells): 0.0252 µM

Compound: O=C(NC1CCc2ccccc2-n2c1nc(Cl)c2Cl)c1ncn(Cc2c(Cl)cccc2Cl)n1 (racemic) [Compound I-73, (±)-N-(1,2-Dichloro-5,6-dihydro-4H-benzo[f]imidazo[1,2-a]azepin-4-yl)-1-(2,6-dichlorobenzyl)-1H-1,2,4-triazole-3-carboxamide]
- IC50 (RIPK1; [1]): 0.0924 µM
- IC50 (L929 cells): 10000 µM
- IC50 (U937 cells): 0.903 µM

Compound: O=C1c2nn(Cc3ccccc3)c(Cl)c2CN1[C@H]1COc2ccccc2-n2nnnc21 [Compound I-79]
- IC50 (RIPK1; [1]): 0.652 µM
- IC50 (L929 cells): 10000 µM
- IC50 (U937 cells): 16.1 µM

Compound: O=C(NC1CCc2ccc(CN3CCN(c4ccncc4)CC3)cc2-n2ccnc21)c1n[nH]c(Cc2ccccc2)n1 (racemic) [Compound I-39, (±)-5-Benzyl-N-(9-((4-(pyridin-4-yl)piperazin-1-yl)methyl)-5,6-dihydro-4H-benzo[f]imidazo[1,2-a]azepin-4-yl)-1H-1,2,4-triazole-3-carboxamide]
- IC50 (RIPK1; [1]): 1.46 µM
- IC50 (L929 cells): 50.9 µM
- IC50 (U937 cells): 1.38 µM

Compound: O=C(NC1CCc2ccccc2-n2c(Cl)cnc21)c1cc(Cc2ccccc2)on1 (racemic) [Compound I-71, (±)-5-Benzyl-N-(1-chloro-5,6-dihydro-4H-benzo[f]imidazo[1,2-a]azepin-4-yl)isoxazole-3-carboxamide]
- IC50 (RIPK1; [1]): 0.58 µM
- IC50 (L929 cells): 10000 µM
- IC50 (U937 cells): 3.48 µM

Compound: O=C(N[C@H]1CS(=O)(=O)c2ccccc2-n2nnnc21)c1cc(Cc2ccccc2)on1 [Compound I-25, (R)-5-Benzyl-N-(6,6-dioxido-4,5-dihydrobenzo[b]tetrazolo[1,5-d][1,4]thiazepin-4-yl)isoxazole-3-carboxamide]
- IC50 (RIPK1; [1]): 0.51 µM
- IC50 (L929 cells): 10000 µM
- IC50 (U937 cells): 28.6 µM

Compound: O=C(N[C@H]1CSc2ccccc2-n2nnnc21)c1ncn(Cc2ccc(F)cc2)n1 [Compound I-22, (R)—N-(4,5-Dihydrobenzo[b]tetrazolo[1,5-d][1,4]thiazepin-4-yl)-1-(4-fluorobenzyl)-1H-1,2,4-triazole-3-carboxamide]
- IC50 (RIPK1; [1]): 0.0321 µM
- IC50 (L929 cells): 2.48 µM
- IC50 (U937 cells): 0.002 µM

Compound: O=C(NC1CCc2ccccc2-n2ccnc21)c1cc(Oc2ccccc2)ccn1 (racemic) [Compound I-51, (±)-N-(5,6-Dihydro-4H-benzo[f]imidazo[1,2-a]azepin-4-yl)-4-phenoxypicolinamide]
- IC50 (RIPK1; [1]): 0.0492 µM
- IC50 (L929 cells): 17.1 µM
- IC50 (U937 cells): 0.125 µM

Compound: CC(C)(O)C#Cc1ccc2c(c1)-n1ccnc1C(NC(=O)n1cc(Cc3ccc(F)cc3)cn1)CC2 (racemic) [Compound I-93, (±)-4-(4-Fluorobenzyl)-N-(9-(3-hydroxy-3-methylbut-1-yn-1-yl)-5,6-dihydro-4H-benzo[f]imidazo[1,2-a]azepin-4-yl)-1H-pyrazole-1-carboxamide]
- IC50 (RIPK1; [1]): 0.0404 µM
- IC50 (L929 cells): 5.17 µM
- IC50 (U937 cells): 0.0371 µM

Compound: O=C(N[C@H]1COc2ccccc2-n2c1noc2=O)c1n[nH]c(Cc2ccccc2)n1 [Compound I-41, 5-Benzyl-N-((4R)-1-oxo-4,5-dihydro-1H-benzo[6][1,2,4]oxadiazolo[4,3-d][1,4]oxazepin-4-yl)-1H-1,2,4-triazole-3-carboxamide]
- IC50 (RIPK1; [1]): 0.058 µM
- IC50 (L929 cells): 10000 µM
- IC50 (U937 cells): 0.0481 µM

Compound: O=C(NC1CCc2ccccc2-n2ccnc21)c1ncn(Cc2ccccc2F)n1 (racemic) [Compound I-14, (±)-N-(5,6-Dihydro-4H-benzo[f]imidazo[1,2-a]azepin-4-yl)-1-(2-fluorobenzyl)-1H-1,2,4-triazole-3-carboxamide]
- IC50 (RIPK1; [1]): 0.0166 µM
- IC50 (L929 cells): 2.34 µM
- IC50 (U937 cells): 0.0066 µM

Source: patent US11667643B2, “RIP1K inhibitors” (priority 2020, dated 2023)
